Read-outs that look alike come from different tables or passages of the source.

Test [1] deals with ED43-virus. The test is classed as cell-based, hepatitis C virus genotype 4a.
Test [2] relates to SOFesc virus (ED43 sofosbuvir escape virus). The experiment in a line: microbe, parasite or virus in culture. The test is classed as cell-based. The following applies: Hepatitis C virus, Huh7.5 cells, 48 hours treatment, read-out: EC50 (nM [95% CI]).
The test system of test [3] is original ED43 virus (HCV genotype 4a full-length culture virus). Briefly: concentration-response (EC50) assay, original virus. Particulars: Hepatitis C virus, Huh7.5, 48 h, read-out: EC50 (nM [95% CI]).
Method: Huh7.5 cells were seeded on 96-well plates overnight, then infected with the indicated viruses for 24 hours. The cells were subsequently treated with specific inhibitors for an additional 48 hours before analysis as described (Pham et al. 2018; Gottwein et al. 2011). Values are means of triplicates±SEM. The original D43 virus was used in these two experiments as a control. TN (1a) virus was included for comparison.
Huhu7.5 cells were seeded on 96-well plates overnight, then infected with the indicated viruses for 24 hours. The cells were subsequently treated with specific inhibitors for an additional 48 hours before analysis as described (Pham et al. 2018; Gottwein et al. 2011). Values are means of triplicates±SEM. The original ED43 virus was used as a control. TN (1a) virus was included for comparison.
For concentration-response assays using described methods (Pham et al. 2018; Ramirez et al. 2016; Ramirez et al. 2014), stocks of non-treated and of single-treatment escape viruses were prepared. […] The half-maximal effective concentration (EC50) value was calculated using GraphPad Prism 6.

Take `COC(=O)N[C@H](C(=O)N1CCC[C@H]1c1nc(-c2ccc3c(c2)O[C@@H](c2ccccc2)n2c-3cc3cc(-c4c[nH]c([C@@H]5CCCN5C(=O)[C@@H](NC(=O)OC)C(C)C)n4)ccc32)c[nH]1)C(C)C` [elbasvir]: the “emergence of main RASs responsible for ED43 escape” value (shortened to “emergence of main RASs responsible”) in test [1] (100×EC50) amounted to 5 days.

As to `COC(=O)N[C@H](C(=O)N1CC2(CC2)C[C@H]1c1nc(-c2ccc3c(c2)C(F)(F)c2cc(-c4ccc5[nH]c([C@@H]6[C@H]7CC[C@H](C7)N6C(=O)[C@@H](NC(=O)OC)C(C)C)nc5c4)ccc2-3)c[nH]1)C(C)C` [ledipasvir], in test [1] (100×EC50), the “emergence of main RASs responsible” value amounted to 5 days.

`COC(=O)N[C@H](C(=O)N1CCC[C@H]1C(=O)Nc1ccc([C@@H]2CC[C@@H](c3ccc(NC(=O)[C@@H]4CCCN4C(=O)[C@@H](NC(=O)OC)C(C)C)cc3)N2c2ccc(C(C)(C)C)cc2)cc1)C(C)C` [ombitasvir]: the “emergence of main RASs responsible” value in test [1] (100×EC50) was 5 days.

Turning to `Cc1cnc(C(=O)N[C@H]2CCCCC/C=C\[C@@H]3C[C@@]3(C(=O)NS(=O)(=O)C3CC3)NC(=O)[C@@H]3C[C@@H](Oc4nc5ccccc5c5ccccc45)CN3C2=O)cn1` [paritaprevir], in test [1] (8×EC50), the “emergence of RAS NS3P-D168E after treatment initiation” value stood at 7 days and the “viral escape / viral spread under treatment” value came to 16 days.

In test [1] (5×EC50), `COC(=O)N[C@H](C(=O)N1CCC[C@H]1c1nc2cc([C@H]3CC[C@H](c4cc5nc([C@@H]6CCCN6C(=O)[C@@H](NC(=O)OC)[C@@H](C)OC)[nH]c5cc4F)N3c3cc(F)c(N4CCC(c5ccc(F)cc5)CC4)c(F)c3)c(F)cc2[nH]1)[C@@H](C)OC` [pibrentasvir] came in with a viral escape of at most 33 days. Moreover, the treatment outcome in test [1] (10×EC50) is given as “viral eradication”.

As for `CC(C)OC(=O)[C@H](C)N[P@](=O)(OC[C@H]1O[C@@H](n2ccc(=O)[nH]c2=O)[C@](C)(F)[C@@H]1O)Oc1ccccc1` [sofosbuvir], the EC50 in test [2] came out at 2250 nM; in test [3], 668 nM. Moreover, the viral escape in test [1] (2×EC50 (initiated at 1×EC50, increased at day 9)) came to 77 days.

For `COC[C@H]1C[C@@H](c2nc(-c3ccc4c(c3)COc3cc5c(ccc6nc([C@@H]7CC[C@H](C)N7C(=O)[C@@H](NC(=O)OC)C(C)C)[nH]c65)cc3-4)c[nH]2)N(C(=O)[C@H](NC(=O)OC)c2ccccc2)C1` [velpatasvir], the viral escape result in test [1] (100×EC50) is listed as “did not observe viral escape”.

For the origin of these results see patent US20240327801A1, “EFFICIENT CELL CULTURE SYSTEM FOR HEPATITIS C VIRUS GENOTYPE 4a” (Hvidovre Hospital, priority 2021, published 2024).
